# According to ChEMBL document CHEMBL1201862, “PubChem BioAssay data set” (2004):
#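 The compound was tested at five concentrations on cells cultured in 96-well plates, with a 48-hour exposure period. GI50: concentration for 50% inhibition of growth.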 Active and inactive are the calls of the source. Rule as the data show it: active = GI50 up to about 1.1 µM and inactive = higher.
# Tests used:
# Assay in all cases: NCI tumour cell line growth inhibition, 48 h
# [1] = test system: MCF7
# [2] = test system: OVCAR-5
# [3] = test system: DU-145
# [4] = test system: CAKI-1
# [5] = test system: SF-268
# [6] = test system: 786-0
# [7] = test system: OVCAR-8
# [8] = test system: Malme-3M
# [9] = test system: OVCAR-4
# [10] = test system: SN12C
# [11] = test system: COLO 205
# [12] = test system: LOX IMVI
# [13] = test system: SF-539
# [14] = test system: PC-3
# [15] = test system: NCI-H460
# [16] = test system: HT-29
# [17] = test system: BT-549
# [18] = test system: HOP-92
# [19] = test system: SNB-75
# [20] = test system: K562
# [21] = test system: A498
# [22] = test system: A549
# [23] = test system: RXF 393
# [24] = test system: SK-MEL-28
# [25] = test system: NCI/ADR-RES
# [26] = test system: UO-31
# [27] = test system: T47D
# [28] = test system: ACHN
# [29] = test system: MDA-MB-435
# [30] = test system: HOP-62
# [31] = test system: NCI-H226
# [32] = test system: SK-OV-3
# [33] = test system: SF-295
# [34] = test system: EKVX
# [35] = test system: SNB-19
# [36] = test system: SW-620
# [37] = test system: CCRF-CEM
# [38] = test system: NCI-H23
# [39] = test system: HCT-116
# [40] = test system: NCI-H522
# [41] = test system: TK-10
# [42] = test system: Hs-578T
# [43] = test system: U-251
# [44] = test system: SK-MEL-2
# [45] = test system: SK-MEL-5
# [46] = test system: KM12
# [47] = test system: M14
# [48] = test system: RPMI-8226
# [49] = test system: UACC-257
# [50] = test system: UACC-62
# [51] = test system: SR
# [52] = test system: OVCAR-3
# [53] = test system: MDA-MB-231
# [54] = test system: MOLT-4
# [55] = test system: MDA-N
# [56] = test system: IGROV-1
# [57] = test system: HCT-15
smiles,measurement,setting,value
CN(C)C(=O)OC1=CC2CCC(C1)N2C (configuration not stated),GI50,[1],66.1 µM (inactive)
same,GI50,[2],> 100 µM (inactive)
same,GI50,[3],> 100 µM (inactive)
same,GI50,[4],> 100 µM (inactive)
same,GI50,[5],> 100 µM (inactive)
same,GI50,[6],> 100 µM (inactive)
same,GI50,[7],> 100 µM (inactive)
same,GI50,[8],> 100 µM (inactive)
same,GI50,[9],> 100 µM (inactive)
same,GI50,[10],> 100 µM (inactive)
same,GI50,[11],> 100 µM (inactive)
same,GI50,[12],61.4 µM (inactive)
same,GI50,[13],> 100 µM (inactive)
same,GI50,[14],97.5 µM (inactive)
same,GI50,[15],32.4 µM (inactive)
same,GI50,[16],> 100 µM (inactive)
same,GI50,[17],> 100 µM (inactive)
same,GI50,[18],> 100 µM (inactive)
same,GI50,[19],> 100 µM (inactive)
same,GI50,[20],88.7 µM (inactive)
same,GI50,[21],> 100 µM (inactive)
same,GI50,[22],70.8 µM (inactive)
same,GI50,[23],> 100 µM (inactive)
same,GI50,[24],> 100 µM (inactive)
same,GI50,[25],91.6 µM (inactive)
same,GI50,[26],52.5 µM (inactive)
same,GI50,[27],> 100 µM (inactive)
same,GI50,[28],82 µM (inactive)
same,GI50,[29],> 100 µM (inactive)
same,GI50,[30],> 100 µM (inactive)
same,GI50,[31],685 nM (active)
same,GI50,[32],> 100 µM (inactive)
same,GI50,[33],> 100 µM (inactive)
same,GI50,[34],> 100 µM (inactive)
same,GI50,[35],> 100 µM (inactive)
same,GI50,[36],> 100 µM (inactive)
same,GI50,[37],28.8 µM (inactive)
same,GI50,[38],> 100 µM (inactive)
same,GI50,[39],> 100 µM (inactive)
same,GI50,[40],> 100 µM (inactive)
same,GI50,[41],> 100 µM (inactive)
same,GI50,[42],> 100 µM (inactive)
same,GI50,[43],87.3 µM (inactive)
same,GI50,[44],> 100 µM (inactive)
same,GI50,[45],> 100 µM (inactive)
same,GI50,[46],> 100 µM (inactive)
same,GI50,[47],79.1 µM (inactive)
same,GI50,[48],> 100 µM (inactive)
same,GI50,[49],> 100 µM (inactive)
same,GI50,[50],> 100 µM (inactive)
same,GI50,[51],47 µM (inactive)
same,GI50,[52],> 100 µM (inactive)
same,GI50,[53],> 100 µM (inactive)
same,GI50,[54],52.8 µM (inactive)
same,GI50,[55],> 100 µM (inactive)
same,GI50,[56],71.4 µM (inactive)
same,GI50,[57],48.3 µM
